Settings: Liquid, Ebulliometric method (Recirculating still)

COCC(CO)OC (stereo not given) [2,3-dimethoxy-1-propanol]
Settings | vapor or sublimation pressure [kPa]
337.95 K | 3.2
368.95 K | 7.84
398.1 K | 19.27
408.55 K | 27.33
413.05 K | 32.46
419.7 K | 38.8
423.55 K | 45.86
431.55 K | 59.8
433.15 K | 65.6
434.85 K | 70.66
437.35 K | 76.53
439.75 K | 83.33
441.65 K | 87.26
444.45 K | 95.73
446.65 K | 100.79

Reference: the NIST ThermoML archive (doi:10.1021/je500606d)
